Article PMC7062083, “Metabolite identification, tissue distribution, excretion and preclinical pharmacokinetic studies of ET-26-HCl, a new analogue of etomidate” (Royal Society Open Science, 2020)
“Also recorded” adds a separate entry of the source.

Key:
[1] = Pharmacokinetics in beagle dogs after intravenous administration; format: in vivo; settings: beagle dogs after i.v. ET-26-HCl
Description: (§1) Concentrations of ET-26-HCl and ET-26-acid in biological samples were determined by liquid chromatography–tandem mass spectrometry (LC–MS/MS) after deproteinization with methanol. The bioanalytical method for simultaneous quantification of ET-26-HCl and ET-26-acid in the different matrix was fully validated according to FDA guidelines (electronic supplementary material, figure S1 and tables S1 and S2) in our previous study. Briefly, a 100 µl sample (plasma, tissue homogenate, bile, urine and faeces suspension) were spiked with 20 µl of IS solution and vortexed for 30 s. The mixture was then processed for protein precipitation with 300 µl methanol, followed by centrifugation at 12 000 r.p.m. for 5 min. Supernatant was collected and analysed by LC–MS/MS system.
The LC–MS/MS was performed as described previously. Briefly, ET-26-HCl, ET-26-acid and GBP were separated using a CAPCELL PAK C18 column (50 × 2.00 mm, 5.00 µm) as well as a Security Guard Cartridge (C18, 4 mm × 3.00 mm i.d., Phenomenex). The mobile phase consisting of 0.3% formic acid water (A), and methanol (B) was pumped at a flow rate of 0.6 ml min^−1. The gradient elution was achieved according to the following protocol: 0 min to about 0.50 min, A/B (41/9, v/v); 0.51 min to about 1.5 min, A/B (1/9, v/v); and 1.51 min to about 2.00 min, A/B ([…], v/v). Mass spectrometry was conducted on an API 3000 mass spectrometer (Sciex, Framingham, MA, USA) equipped with an electrospray ionization (ESI) source operating in positive mode. The MS/MS system was in the multiple reaction monitoring (MRM) mode, using the m/z transitions of 275.6/170.9 for ET-26-HCl, 217.7/113.1 for ET-26-acid and 172.5/154.3 for GBP (IS), respectively. The API 3000 mass parameters were set according to the following protocol: curtain gas, 6 psi; collision gas, 8 psi; nebulizer, 4 psi; ion spray voltage, 3000 V and ion source temperature, 450°C. The autosampler was conditioned at 4°C, and the injection volume was 5 µl. The linear ranges of this analytical method for ET-26-HCl and for ET-26-acid from all biological samples are shown in electronic supplementary material, table S3.
Beagle dogs, weighing 9–11 kg, were purchased from Sichuan Industrial of Antibiotics, China National Pharmaceutical Group Corporation (Chengdu, China). A 3 × 3 crossover experimental design with 24 beagles (equal number of male and female dogs) randomly divided into six groups was conducted. Beagle dogs in the six groups received three doses of ET-26-HCl: 1.045 mg kg^−1, 2.090 mg kg^−1 and 4.180 mg kg^−1 as low (L), medium (M) and high (H) dose. Blood samples (2 ml) were collected from the elbow vein in 4 ml heparinized tubes before dosing, and at 1, 3, 5, 10, 20, 30, 120 and 180 min post-dosing. All blood samples were centrifuged at 8000 r.p.m. for 10 min and plasma collected and stored at −80°C until analysis.
All calculations were performed on Microsoft Excel 2016 (Microsoft Co., USA). The Drug and Statistics 3.2.7 (DAS 3.2.7) software package (Mathematical Pharmacology Professional Committee of China, China) was used to acquire the main pharmacokinetic parameters of ET-26-HCl. All data were shown as mean ± standard deviation (s.d.). Statistical significances were calculated by one-way analysis of variance (ANOVA).

[2] = Tissue distribution in Sprague Dawley rats; format: in vivo; settings: i.v. 4.2 mg kg^−1 ET-26-HCl
Description: as §1
Sprague Dawley (SD) rats (200–240 g) were provided by the Animal Facility at Sichuan University (Chengdu, China). All rats received a single 4.2 mg kg^−1 dose of ET-26-HCl intravenously. Rats were sacrificed and tissues, including heart, spleen, lung, intestine, colon, kidney, brain, fat, stomach, liver, muscle, testis and ovary were collected at 0, 1, 3, 6 and 10 h post-dosing (six rats/time-point). Tissue samples were rinsed thrice in ice cold saline, and blotted dry with filter papers. Weighed amount of tissues were homogenized in normal saline (thrice the tissue weight, w/v) and homogenates were stored at −80°C until analysis.

[3] = Excretion (urine, faeces, bile) in Sprague Dawley rats; format: in vivo
Description: as §1
SD rats (4 male and 4 female) received 4.2 mg kg^−1 of ET-26-HCl intravenously and were housed in metabolic cages. Urine and faeces from the treated rats were collected between 0–6, 6–12, 12–24, 24–30, 30–36 and 36–48 h post-dosing. Urine volume and faeces weight were measured and recorded.
Bile fistulas of SD rats (four male and four female) were cannulated with polyethylene tube (Instech Laboratories, Inc., USA) and bile was collected at the following time-points: 0–3, 3–6, 6–9, 9–12 and 12–24 h post-dosing. The volume of the collected bile was measured and stored at −80°C until analysis.

[4] = Stability in beagle plasma (LC-MS/MS); format: in vitro ADME
Description: as §1

[5] = rats, i.v. ET-26-HCl; cited from earlier work
[6] = Identification of major metabolites in liver microsomes (UPLC-Q-TOF-MS); format: in vitro ADME, mouse, rat, beagle dog, monkey and human; settings: 10 µM ET-26-HCl, 1 mg ml^−1 liver microsomes, NADPH, 1 h
Description: The major metabolites of ET-26-HCl in liver microsomes from mouse, rat, beagle dog, monkey and human were determined by the UPLC-Q-TOF-MS system.
Reaction mixture containing 10 µM ET-26-HCl, […] MgCl2 and 1 mg ml^−1 liver microsomes in Tris-HCl phosphate buffer (pH 7.4) was pre-incubated for 6 min at 37°C, followed by the addition of NADPH. After incubation for 1 h, methanol was added to stop the reaction. Samples were centrifuged at 11 000 r.p.m. for 5 min; supernatants were collected and air dried at 40°C. Residues were dissolved in 100 µl acetonitrile/water (1:1, v/v) and analysed by the UPLC-Q-TOF-MS.
The UPLC-Q-OF-MS system was equipped with a Waters Synapt G2-Si quadrupole time-of-flight mass spectrometer (Q-TOF-MS), an ESI source and an ACQUITY UPLC H-CLASS liquid chromatography system. The chromatographic separations were achieved on an ACQUITY UPLC BEH C18 column (2.1 × 100 mm, i.d. 1.7 µm, Waters, USA) kept at 45°C and a flow rate of 0.4 ml min^−1. The mobile phase consisted of 5 mM ammonium acetate with 0.1% formic acid (A) and acetonitrile with 0.1% formic acid (B). The optimized gradient elution programme followed was 0 min to 2.1 min, A/B (19/1, v/v); 2.1 min to 7.3 min, A/B (1/4, v/v); 7.3 min to 8.0 min, A/B (1/9, v/v); and 8.0 min to 10 min, A/B (19/1, v/v). The injection volume was 5 µl. The mass experiment was operated in positive ion modes under the following parameters: turbo spray temperature, 120°C; ion spray voltage, 3.0 kV. Nitrogen was used as the nebulizer and the auxiliary gas; meanwhile, the nebulizer gas was set to 650 l h^−1 and kept at 350°C. The collision energy was set at 5–10 V and the collision energy spread was 4–6 V. TOF-MS was scanned with the mass range of m/z 50–600 with 200 ms accumulation time. A 400 ng ml^−1 leu-enkephalin (m/z 556.2771) was selected as an external standard for mass–charge ratio correction at a flow rate of 5 µl min^−1.

[7] = i.v. ET-26-HCl 4.2 mg kg^−1, collected to 48 h

Compound	plasma concentration of ET-26-acid (in words) [1]	time for clearance from tissues [2]	tissues with the highest concentration [2]	accumulative excretion through bile ([3]; i.v. ET-26-HCl 4.2 mg kg^−1, bile collected to 24 h) [%]	accumulative excretion through faeces [3, 7] [%]	accumulative excretion through urine [3, 7] [%]	Measured concentration (Mean ± SD) ([4]; 4◦C for 3 h, nominal 38.24 ng/mL) [ng/mL]	Measured concentration (Mean ± SD) ([4]; 4◦C for 3 h, nominal 3186 ng/mL) [ng/mL]	Measured concentration (Mean ± SD) ([4]; Freeze and Thaw Cycle (3), nominal 38.24 ng/mL) [ng/mL]	Measured concentration (Mean ± SD) ([4]; Freeze and Thaw Cycle (3), nominal 3186 ng/mL) [ng/mL]	Measured concentration (Mean ± SD) ([4]; Room temperature 3 h, nominal 38.24 ng/mL) [ng/mL]	Measured concentration (Mean ± SD) ([4]; Room temperature 3 h, nominal 3186 ng/mL) [ng/mL]	Measured concentration (Mean ± SD) ([4]; –80 ◦C for 30 days, nominal 38.24 ng/mL) [ng/mL]	Measured concentration (Mean ± SD) ([4]; –80 ◦C for 30 days, nominal 3186 ng/mL) [ng/mL]	plasma exposure of metabolite relative to parent (in words) [5]	source (liver microsomes) in which detected [6]
C[C@H](c1ccccc1)n1cncc1C(=O)O [ET-26-acid]	almost non-detectable; also recorded: almost undetectable	around 3 h	plasma and liver	0.027	0.080	12.49	39.92 ± 2.904	2890 ± 174.8	36.23 ± 2.568	2770 ± 157.7	38.29 ± 4.088	2890 ± 117.6	35.84 ± 1.899	3049 ± 391.4	higher plasma exposure than the parent drug	–
C[C@H](c1ccccc1)n1cncc1C(=O)OCCO [M2]	–	–	–	–	–	–	–	–	–	–	–	–	–	–	–	every liver microsomal preparation; also recorded: human, monkey, dog, rat, mouse
